Source: ChEMBL document CHEMBL1128921, “Mechanism-based inactivation of serine proteases by dichlorocyclopropane fused lactone derivatives” (Bioorg Med Chem Lett, 1996)
Values belong to the compound of their own block, whether it stands above or below them.

What was measured:
[1] = molecular target: Chymotrypsinogen A (Bos taurus) (UniProt P00766); experiment: Compound was evaluated for inhibitory activity against alpha-chymotrypsin at a concentration of 7.5 x 10e-6
[2] = molecular target: T1, Chymotrypsin-like elastase family member 2A (Sus scrofa) (UniProt P08419); experiment: Compound was evaluated for inhibitory activity against PP elastase at a concentration of 2.0 x 10e-5; NI = No inactivation
T1 sequence (whole entry): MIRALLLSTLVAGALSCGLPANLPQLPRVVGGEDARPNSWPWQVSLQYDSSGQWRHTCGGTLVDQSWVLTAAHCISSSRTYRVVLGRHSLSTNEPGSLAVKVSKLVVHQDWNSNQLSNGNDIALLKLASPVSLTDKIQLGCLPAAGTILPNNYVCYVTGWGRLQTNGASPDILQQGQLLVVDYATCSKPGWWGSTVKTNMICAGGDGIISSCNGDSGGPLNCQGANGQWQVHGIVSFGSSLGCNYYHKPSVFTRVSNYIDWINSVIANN

[3] = molecular target: T1, Chymotrypsin-like elastase family member 2A (Sus scrofa); experiment: Compound was evaluated for inhibitory activity against PP elastase at a concentration of 1.2 x 10e-3; NI = No inactivation
[4] = molecular target: Chymotrypsinogen A (Bos taurus) (UniProt P00766); experiment: Compound was evaluated for inhibitory activity against alpha-chymotrypsin at a concentration of 5.0 x 10e-4
[5] = molecular target: Chymotrypsinogen A (Bos taurus) (UniProt P00766); experiment: Compound was evaluated for inhibitory activity against alpha-chymotrypsin at a concentration of 6.0 x 10e-3
[6] = molecular target: Chymotrypsinogen A (Bos taurus) (UniProt P00766); experiment: Compound was evaluated for inhibitory activity against alpha-chymotrypsin at a concentration of 1.95 x 10e-2; NI = No inactivation
[7] = molecular target: T1, Chymotrypsin-like elastase family member 2A (Sus scrofa); experiment: Compound was evaluated for inhibitory activity against PP elastase at a concentration of 1.95 x 10e-2; NI = No inactivation
[8] = molecular target: Chymotrypsinogen A (Bos taurus) (UniProt P00766); experiment: Compound was evaluated for inhibitory activity against alpha-chymotrypsin at a concentration of 5.0 x 10e-4; NI = No inactivation

Structure (SMILES): C[C@H](NC(=O)CCC(=O)O)C(=O)N[C@@H](C)C(=O)N[C@@H](Cc1ccccc1)C(=O)OC1CC1(Cl)Cl (stereo partly drawn)
- K obs / 1 [3]: No inactivation
- K obs / 1 [4]: 0.337 M⁻¹ s⁻¹

Structure (SMILES): O=C(O)CCC(=O)N[C@@H](Cc1ccccc1)C(=O)OC1CC1(Cl)Cl (stereo partly drawn)
- K obs / 1 [5]: 0.054 M⁻¹ s⁻¹

Structure (SMILES): O=C1CCC2C(O1)C2(Cl)Cl (stereo not drawn)
- K obs / 1 [6]: No inactivation
- K obs / 1 [7]: No inactivation

Now from value to compound:

- K obs / 1 [1]: 54 M⁻¹ s⁻¹
- K obs / 1 [2]: No inactivation
Structure (SMILES): O=C1OC2C(CC1Cc1ccccc1)C2(Cl)Cl (stereo not drawn)

- K obs / 1 [8]: No inactivation
Structure (SMILES): O=C1OCCCC1Cc1ccccc1 (stereo not drawn)
